Assays:
[1] = Pharmacokinetics of compounds 1–11 in rat plasma (UPLC-TQ/MS) after oral administration of HYD and plus-minus Haizao/Gancao decoctions; type: in vivo, Wistar rats (PTU-induced model of hypothyroidism); settings: Wistar, model rats, n = 6, mean ± S.D.
Description: Plasma samples (200 μL) and IS solution (50 μL, 1215 ng/mL for diphenhydramine, 476 ng/mL for chloromycetin) were added to an Eppendorf tube, and this mixture was extracted with methanol (550 μL) by shaking on a vortex-mixer for 2 min, and centrifuged for 10 min at 13,000 rpm. The contents were evaporated to dryness in a rotary evaporator at 37 °C. The residue was reconstituted in methanol (100 μL) and centrifuged (13,000 rpm for 10 min). The supernatant was transferred to an autosample vial and an aliquot of 5 μL was injected onto the UPLC-MS/MS system for analysis.
The developed and validated method was used to evaluate the pharmacokinetics of the eleven compounds after oral administration of different fractions in […] (Figure 3). […] The pharmacokinetic parameters including half-life (T1/2), maximum plasma concentration (Cmax), time to reach the maximum concentration (Tmax), and area under concentration–time curve (AUC0~t) were calculated by a non-compartment model and are shown in Table 6.
A considerable increase in thyroid stimulating hormone (TSH) and decrease in triiodothyronine (T3) and tetraiodothyronine (T4) in serum are considered to be markers of successful hypothyroid rat model preparation. PTU is the classic drug used to replicate hypothyroidism in rat models. It is generally thought that PTU can decrease the level of thyroid hormone in a hypothyroid rat model by inhibiting the activity of TPO [31, 32]. Model Wistar rats were administered PTU intragastrically at a dose of 10 mg/kg (QD) for 2 weeks to establish hypothyroidism. Serum from model rats was collected on the last day of PTU administration and the T3, T4 and TSH levels were determined using test kits. Wistar rats with a considerable increase in […] and a decrease in serum T3 and T4 were considered to have hypothyroidism and were selected for subsequent pharmacokinetic studies.
For the pharmacokinetic studies, model Wistar rats were divided into six groups (n = 6 per group). Rats in the model HYD groups were administered HYD at a dose of 12 mL/kg intragastrically. In the model HYD-GC groups, HYD-GC (11 mL/kg) was administered. In the model HYD-HZ groups, HYD-HZ (11 mL/kg) was administered. In the model HYD-GC-HZ groups, HYD-GC-HZ (10 mL/kg) was administered. In the model GH groups, GH (2 mL/kg) was administered. In the model GC groups, GC (1 mL/kg) was administered. Blood samples were collected at specific time points before (0 min) and after oral administration (5, 10, 20, 40, 60, 120, 240, 480, 720, 1440 min). A total of 360 blood samples were collected. All blood samples were immediately centrifuged at 2500 rpm for 10 min to obtain plasma, which was labeled and frozen at −80 °C until analysis. Blank plasma was obtained from the rats without oral administration and was used to investigate the assay development and validation.
To determine the pharmacokinetic parameters of compounds 1–11 in different groups, concentration–time data were analyzed by DAS 3.2 software (Mathematical Pharmacology Professional Committee of China, Shanghai, China, 2011). Data were expressed as the mean and standard deviation (S.D.) with triplicate measurements. The identification of significant differences between different groups was carried out using the Student’s t-test. A p value < 0.05 was considered statistically significant.

CYP2C19 = tested on: CYP2C19; set-up: method as in PMID 21462897; settings: cited from earlier work
CYP2C9 = tested on: CYP2C9; set-up: method as in PMID 21462897; settings: cited from earlier work
CYP3A4 = tested on: CYP3A4; set-up: method as in PMID 21462897; settings: cited from earlier work
[2] = 1 mL/kg, group GC (extract of Gancao), 1 mL/kg intragastrically
[3] = 2 mL/kg, group GH (extract of Gancao and Haizao), 2 mL/kg intragastrically
[4] = 11 mL/kg, group HYD-HZ (HYD minus Haizao), 11 mL/kg intragastrically
[5] = 12 mL/kg, group HYD, 12 mL/kg intragastrically
[6] = 10 mL/kg, group HYD-GH (HYD minus Gancao and Haizao; HYD-GC-HZ), 10 mL/kg intragastrically
[7] = 11 mL/kg, group HYD-GC (HYD minus Gancao), 11 mL/kg intragastrically

SMILES: O=C1C[C@@H](c2ccc(O[C@@H]3O[C@H](CO)[C@@H](O)[C@H](O)[C@H]3O)cc2)Oc2cc(O)ccc21 [Compound 1, liquiritin]
- AUC(0-t) [1, 2]: 229 ± 119 ng·h/mL
- Cmax [1, 2]: 147 ± 37.7 ng/mL
- Tmax [1, 2]: 0.67 h
- half-life [1, 2]: 0.99 ± 0.34 h
- AUC(0-t) [1, 3]: 2510 ± 814 ng·h/mL
- Cmax [1, 3]: 254 ± 122 ng/mL
- Tmax [1, 3]: 0.17 h
- half-life [1, 3]: 1.34 ± 1.48 h
- AUC(0-t) [1, 4]: 987 ± 567 ng·h/mL
- Cmax [1, 4]: 494 ± 165 ng/mL
- Tmax [1, 4]: 0.31 ± 0.07 h
- half-life [1, 4]: 3.66 ± 3.3 h
- AUC(0-t) [1, 5]: 1760 ± 287 ng·h/mL
- Cmax [1, 5]: 1600 ± 595 ng/mL
- Tmax [1, 5]: 0.19 ± 0.11 h
- half-life [1, 5]: 9.23 ± 5.85 h

SMILES: C[C@@H]1O[C@@H](O[C@H]2[C@H](Oc3cc(O)c4c(c3)O[C@H](c3ccc(O)cc3)CC4=O)O[C@H](CO)[C@@H](O)[C@@H]2O)[C@H](O)[C@H](O)[C@H]1O [Compound 2, naringin]
- AUC(0-t) [1, 6]: 565 ± 352 ng·h/mL
- Cmax [1, 6]: 424 ± 188 ng/mL
- Tmax [1, 6]: 0.15 ± 0.1 h
- half-life [1, 6]: 1.23 ± 0.15 h
- AUC(0-t) [1, 7]: 561 ± 278 ng·h/mL
- Cmax [1, 7]: 271 ± 75.4 ng/mL
- Tmax [1, 7]: 0.19 ± 0.07 h
- half-life [1, 7]: 1.12 ± 0.28 h
- AUC(0-t) [1, 4]: 1060 ± 244 ng·h/mL
- Cmax [1, 4]: 463 ± 194 ng/mL
- Tmax [1, 4]: 0.5 ± 0.18 h
- half-life [1, 4]: 2.59 ± 2.02 h
- AUC(0-t) [1, 5]: 912 ± 198 ng·h/mL
- Cmax [1, 5]: 612 ± 200 ng/mL
- Tmax [1, 5]: 0.17 ± 0.09 h
- half-life [1, 5]: 11.3 ± 4.86 h

SMILES: O=C1C[C@@H](c2ccc(O)cc2)Oc2cc(O)ccc21 [Compound 6, liquiritigenin]
- AUC(0-t) [1, 2]: 1000 ± 946 ng·h/mL
- Cmax [1, 2]: 220 ± 47.4 ng/mL
- Tmax [1, 2]: 2.5 ± 1.73 h
- half-life [1, 2]: 2.41 ± 1.57 h
- AUC(0-t) [1, 3]: 681 ± 771 ng·h/mL
- Cmax [1, 3]: 211 ± 70.3 ng/mL
- Tmax [1, 3]: 1.5 ± 1.23 h
- half-life [1, 3]: 4.12 ± 3.73 h
- AUC(0-t) [1, 4]: 2150 ± 629 ng·h/mL
- Cmax [1, 4]: 276 ± 66.5 ng/mL
- Tmax [1, 4]: 0.79 ± 1.58 h
- half-life [1, 4]: 3.94 ± 0.59 h
- Cmax [1, 5]: 358 ± 91.9 ng/mL
- Tmax [1, 5]: 2.75 ± 4.07 h
- half-life [1, 5]: 4.05 ± 0.77 h

SMILES: CC1(C)[C@@H](O[C@H]2O[C@H](C(=O)O)[C@@H](O)[C@H](O)[C@H]2O[C@@H]2O[C@H](C(=O)O)[C@@H](O)[C@H](O)[C@H]2O)CC[C@]2(C)[C@H]3C(=O)C=C4[C@@H]5C[C@@](C)(C(=O)O)CC[C@]5(C)CC[C@@]4(C)[C@]3(C)CC[C@@H]12 [Compound 7, glycyrrhizic acid]
- AUC(0-t) [1, 2]: 1760 ± 1430 ng·h/mL
- Cmax [1, 2]: 607 ± 137 ng/mL
- Tmax [1, 2]: 1.25 ± 0.5 h
- half-life [1, 2]: 4.47 ± 2.63 h
- AUC(0-t) [1, 3]: 3600 ± 1840 ng·h/mL
- Cmax [1, 3]: 1350 ± 322 ng/mL
- Tmax [1, 3]: 0.56 ± 0.4 h
- half-life [1, 3]: 9.94 ± 8.89 h
- AUC(0-t) [1, 4]: 587 ± 261 ng·h/mL
- Cmax [1, 4]: 587 ± 261 ng/mL
- Tmax [1, 4]: 0.67 ± 0.42 h
- half-life [1, 4]: 1.84 ± 1.82 h
- AUC(0-t) [1, 5]: 1690 ± 639 ng·h/mL
- Cmax [1, 5]: 1370 ± 712 ng/mL
- Tmax [1, 5]: 0.292 ± 0.1 h
- half-life [1, 5]: 1.58 ± 1.01 h

SMILES: COc1c2ccoc2cc2oc(=O)ccc12 [Compound 8, bergapten]
- AUC(0-t) [1, 6]: 786 ± 369 ng·h/mL
- Cmax [1, 6]: 125 ± 35.6 ng/mL
- Tmax [1, 6]: 0.11 ± 0.04 h
- half-life [1, 6]: 9.6 ± 10.6 h
- AUC(0-t) [1, 7]: 470 ± 130 ng·h/mL
- Cmax [1, 7]: 183 ± 47 ng/mL
- Tmax [1, 7]: 0.61 ± 0.14 h
- half-life [1, 7]: 1.17 ± 0.1 h
- AUC(0-t) [1, 4]: 649 ± 132 ng·h/mL
- Cmax [1, 4]: 192 ± 54.5 ng/mL
- Tmax [1, 4]: 0.81 ± 0.34 h
- half-life [1, 4]: 1.92 ± 1.75 h
- AUC(0-t) [1, 5]: 819 ± 25.7 ng·h/mL
- Cmax [1, 5]: 227 ± 57.8 ng/mL
- Tmax [1, 5]: 0.33 ± 0.21 h
- half-life [1, 5]: 1.56 ± 1.02 h

SMILES: COc1ccc(-c2cc(=O)c3c(OC)c(OC)c(OC)c(OC)c3o2)cc1OC [Compound 9, nobiletin]
- AUC(0-t) [1, 6]: 1180 ± 539 ng·h/mL
- Cmax [1, 6]: 311 ± 126 ng/mL
- Tmax [1, 6]: 0.46 ± 0.37 h
- half-life [1, 6]: 3.26 ± 3.53 h
- AUC(0-t) [1, 7]: 2010 ± 1020 ng·h/mL
- Cmax [1, 7]: 501 ± 183 ng/mL
- Tmax [1, 7]: 0.89 ± 0.27 h
- half-life [1, 7]: 4.53 ± 1.89 h
- AUC(0-t) [1, 4]: 2290 ± 55.5 ng·h/mL
- Cmax [1, 4]: 322 ± 88.2 ng/mL
- Tmax [1, 4]: 0.19 ± 0.07 h
- half-life [1, 4]: 16.2 ± 7.06 h
- AUC(0-t) [1, 5]: 2870 ± 285 ng·h/mL
- Cmax [1, 5]: 1000 ± 178 ng/mL
- Tmax [1, 5]: 0.67 h
- half-life [1, 5]: 6.03 ± 1.95 h

SMILES: COc1ccc2ccc(=O)oc2c1CC=C(C)C [Compound 10, osthole]
- AUC(0-t) [1, 6]: 98.5 ± 41 ng·h/mL
- Cmax [1, 6]: 69.2 ± 25.6 ng/mL
- Tmax [1, 6]: 0.53 ± 0.31 h
- half-life [1, 6]: 0.68 ± 0.49 h
- AUC(0-t) [1, 7]: 205 ± 94.7 ng·h/mL
- Cmax [1, 7]: 101 ± 31.9 ng/mL
- Tmax [1, 7]: 0.39 ± 0.14 h
- half-life [1, 7]: 1.54 ± 0.51 h
- AUC(0-t) [1, 4]: 295 ± 117 ng·h/mL
- Cmax [1, 4]: 295 ± 117 ng/mL
- Tmax [1, 4]: 0.61 ± 0.25 h
- half-life [1, 4]: 1.45 ± 1.11 h
- AUC(0-t) [1, 5]: 748 ± 225 ng·h/mL
- Cmax [1, 5]: 458 ± 184 ng/mL
- Tmax [1, 5]: 0.61 ± 0.14 h
- half-life [1, 5]: 1.25 ± 0.03 h

SMILES: CC1(C)[C@@H](O)CC[C@]2(C)[C@H]3C(=O)C=C4[C@@H]5C[C@@](C)(C(=O)O)CC[C@]5(C)CC[C@@]4(C)[C@]3(C)CC[C@@H]12 [Compound 11, glycyrrhetinic acid]
- AUC(0-t) [1, 2]: 10500 ng·h/mL
- Cmax [1, 2]: 776 ± 184 ng/mL
- Tmax [1, 2]: 10 ± 2.31 h
- half-life [1, 2]: 4.66 ± 5.33 h
- AUC(0-t) [1, 3]: 22800 ng·h/mL
- Cmax [1, 3]: 1250 ± 210 ng/mL
- Tmax [1, 3]: 12.7 ± 5.89 h
- half-life [1, 3]: 1.93 ± 0.04 h
- AUC(0-t) [1, 4]: 12700 ng·h/mL
- Cmax [1, 4]: 756 ± 58.1 ng/mL
- Tmax [1, 4]: 12 h
- half-life [1, 4]: 1.99 ± 0.03 h
- AUC(0-t) [1, 5]: 9990 ± 1660 ng·h/mL
- Cmax [1, 5]: 504 ± 101 ng/mL
- Tmax [1, 5]: 9.33 ± 2.07 h
- half-life [1, 5]: 3.01 ± 2.35 h
- inhibitory potencies on CYP2C19 enzyme activity (CYP2C19): up to 50%
- inhibitory potencies on CYP2C9 enzyme activity (CYP2C9): up to 50%
- inhibitory potencies on CYP3A4 enzyme activity (CYP3A4): up to 50%

Source: publication PMC6155732, “Development of a UPLC-TQ/MS Approach for the Determination of Eleven Bioactive Components in Haizao Yuhu Decoction Plus-Minus Haizao and Gancao Drug Combination after Oral Administration in a Rat Model of Hypothyroidism” (Molecules : A Journal of Synthetic Chemistry and Natural …, 2016)
